Source: patent US5843910A, “Colchicine derivatives and the therapeutical use thereof” (Indena S.p.A., priority 1996, dated 1998)

Assays:
[1] = system: Breast tumoral cell line; experiment: In vitro cytotoxic (antimitotic) activity on tumoral cell lines, breast; format: cell-based
From the text: (§1) Taxol and colchicine are the comparison substances.
(§2) In vitro cytotoxic activity of some novel colchicine derivatives.

[2] = system: Lung tumoral cell line; experiment: In vitro cytotoxic (antimitotic) activity on tumoral cell lines, lung; format: cell-based
From the text: as §1, §2

[3] = system: Ovary tumoral cell line; experiment: In vitro cytotoxic (antimitotic) activity on tumoral cell lines, ovary; format: cell-based
From the text: as §1, §2

[4] = system: resistant cell lines; experiment: cells; details: read-out: In vitro cytotoxic activity, IC50, Cell. resist.
From the text: as §1
Formulations for the parenteral, oral, transdermal, epicutaneous administrations can be conveniently prepared.

[5] = system: Colon tumoral cell line; experiment: In vitro cytotoxic (antimitotic) activity on tumoral cell lines, colon; format: cell-based
From the text: as §1, §2

Structure (SMILES)	IC50 [1] [nM]	IC50 [2] [nM]	IC50 [3] [nM]	IC50 [4] [nM]	IC50 [5] [nM]
COc1cc2c(c(OC)c1OC)-c1ccc(OC)c(=O)cc1[C@@H](NC(C)=O)CC2 [Colchicine, colchicine]	4.4	16	5.3	112	3.9
COc1c(OC(C)C)cc2c(c1OC)-c1ccc(SC)c(=O)cc1[C@@H](NC(=O)C(F)(F)F)CC2 [Compound IIZ, N-desacetyl-N-trifluoroacetyl-3-O-demethyl-3-O-isopropyl-thiocolchicine]	5	19	9.4	11	1.8
COc1cc2c(c(OC)c1OC)-c1ccc(SC)c(=O)cc1[C@@H](NC(=O)[C@@H](NC(=O)C(F)(F)F)c1ccccc1)CC2 [Compound IVZ, N-(N-trifluoroacetyl-α-phenylglycyl)-desacetylthiocolchicine]	4.1	12	6.1	7	2.2
COc1c(OC2CCCC2)cc2c(c1OC)-c1ccc(SC)c(=O)cc1[C@@H](NC(=O)C(F)(F)F)CC2 [Compound IZ, N-desacetyl-N-trifluoroacetyl-3-O-demethyl-3-O-cyclopentyl-thiocolchicine]	6.2	8	4.2	26	2.6
CC(=O)O[C@H]1C(=O)[C@@]2(C)[C@H]([C@H](OC(=O)c3ccccc3)[C@]3(O)C[C@H](OC(=O)[C@H](O)[C@@H](NC(=O)c4ccccc4)c4ccccc4)C(C)=C1C3(C)C)[C@]1(OC(C)=O)CO[C@@H]1C[C@@H]2O [Taxol, reference compound]	3.2	1.7	6.1	299	3.5
